In brackets after ≈: the same amount, converted by molar mass. Several values for one entry are separate records, joined by “and”; a condition that tells them apart may be missing. Equal values may be shown once. Read-outs that look alike come from different tables or passages of the source.

Here are results for five compounds from article PMC5655044, “Reducing Antibacterial Development Risk for GSK1322322 by Exploring Potential Human Dose Regimens in Nonclinical Efficacy Studies Using Immunocompetent Rats” (Antimicrobial Agents and Chemotherapy, 2017).

Data set [1] deals with S. aureus. Kind of data set: MIC by CLSI broth microdilution, S. aureus isolates. The data set is classed as cell-based, Staphylococcus aureus. Also on record: key to Susceptibility category (superscript to MIC): R, resistant; S, susceptible; NS, nonsusceptible (resistance not defined). The settings on record: for MIC: Staphylococcus aureus. On the procedure: (§1) The strains chosen for these studies were clinical isolates from the GSK collection. They were selected on the basis of their desired susceptibility to GSK1322322, resistance phenotype, proven ability to produce robust infections in the rat infection models used in the present study, and previous validation in the models using positive- and negative-control antimicrobials (data on file). MICs were determined using the Clinical and Laboratory Standards Institute-recommended standards for broth microdilution ([24]) and are shown in Table 2. The MIC assay was repeated multiple times for each isolate, and results were consistent (within an accepted variation of ±1 dilution) across assays.
A general note: Dilution methods test growth across graded concentrations, often in twofold steps.

The conditions of data set [2]: cited from earlier work; for AUC0–t Human / Cmax Human: estimated from published oral PK data; for AUC from 0 to 12 h postdosing: human.
In data set [3] the test system is S. pneumoniae. Kind of data set: MIC by CLSI broth microdilution, S. pneumoniae isolates. The data set is classed as cell-based, Streptococcus pneumoniae. Also on record: key to Susceptibility category (superscript to MIC): R, resistant; S, susceptible; NS, nonsusceptible (resistance not defined). The conditions noted are these: for MIC: Streptococcus pneumoniae. On the procedure: as §1

For data set [4], the system named is H. influenzae. The data set is described as follows: MIC by CLSI broth microdilution, H. influenzae isolates. The class given is cell-based, Haemophilus influenzae. Also on record: key to Susceptibility category (superscript to MIC): R, resistant; S, susceptible; NS, nonsusceptible (resistance not defined). The settings on record: for MIC: Haemophilus influenzae. On the procedure:
as §1

A short description of data set [5]: Epithelial lining fluid penetration in infected rats. The class given is in vivo. The conditions noted are these: rat, epithelial lining fluid (total drug) / plasma (free drug); infected rats (data on file); read-out: Ratio of the total drug epithelial lining fluid AUC to the free drug plasma AUC.
Data set [6] can be described thus: Blood versus plasma concentrations, rat. The settings on record: rat (data on file). The data set is classed as in vitro ADME.
A short description of data set [7]: Blood versus plasma concentrations, human. The data set is classed as in vitro ADME. The conditions noted are these: human (data on file).
Details of data set [8]: method as in PMID 24189245. The conditions noted are these: healthy volunteers; cited from earlier work.
For data set [9], the system named is S. pneumoniae. Kind of data set: Rat model of S. pneumoniae pneumonia with recreated human exposure profiles. The data set is classed as in vivo. The conditions noted are these: for Reduction in bacterial burden compared with controls at baseline: LVX- and AZM-resistant S. pneumoniae isolate, recreated human profiles (LVX 500 mg, AZM 1,000/500 mg once daily). On the procedure: (§2) The respiratory tract infection model was performed as previously described by Hoover et al. with slight modifications ([25]). Briefly, rats were anesthetized with a cocktail containing ketamine hydrochloride (Ketaset; 40 mg/kg) and xylazine (Rompun; 5 mg/kg) via intramuscular injection of 150 μl. The infection was induced by instilling 200 μl of the bacterial suspension in cooled, molten nutrient agar directly into the left lung via nonsurgical intratracheal intubation. As described in detail by Hoover et al., the use of agar for the inoculum boosts the ability of these organisms to establish infection in immunocompetent animals ([25]). The final inoculum ranged from 5.7 to 6.2 log10 CFU/rat for S. pneumoniae and 6.2 to 7.5 log10 CFU/rat for H. influenzae.
(§3) Solutions were freshly prepared each day.
(§4) One set of rats was euthanized at 1 h postinfection to establish the baseline bacterial burden at the time that dosing was initiated. All remaining animals were euthanized at 96 h postinfection. Euthanasia was achieved by carbon dioxide overdose, and infected tissues were excised aseptically and homogenized in 1 ml PBS using a laboratory blender (Stomacher 80; Seward Ltd., Worthing, West Sussex, UK). The lungs were removed whole and blotted to remove excess blood prior to processing. Abscesses were excised intact by removing all surrounding skin and tissue to ensure collection of the entire infected area along with the complete abscess itself. For enumeration of viable bacterial numbers, 10-fold serial dilutions were prepared in PBS and triplicate samples of 20 μl each were inoculated onto Trypticase soy agar supplemented with 5% sheep's blood (S. pneumoniae and S. aureus) or chocolate agar (H. influenzae) by a modified Miles-Misra technique ([27], [28]), using a Hamilton Microlab AT 2 Plus system. The colonies were counted following overnight incubation at 37°C, and the limit of detection was ≤1.7 log10 CFU/tissue.
(§5) The outcome measure for efficacy was the number of bacteria isolated from the infected tissues (number of log10 CFU per lungs or number of log10 CFU per abscess) at the conclusion of the study. Results are presented either as group means or as the change in the number of CFU from that at the baseline with associated standard errors of the means (SEM) for the difference. Statistical analysis was performed using the Student t test with a significance level of 0.05.

Data set [10] deals with H. influenzae. The data set is described as follows: Rat model of H. influenzae pneumonia with recreated human exposure profiles. The class given is in vivo. The conditions noted are these: for Log10 reductions versus the levels at the baseline: 96 h. On the procedure:
as §2, §3, §4, §5

Data set [11] relates to S. aureus. Kind of data set: Rat model of S. aureus abscess with recreated human exposure profiles. The settings on record: recreated AZM 1,000/500-mg profile, all three (macrolide-resistant) S. aureus isolates. The data set is classed as in vivo. On the procedure:
Rats were also anesthetized as described above for establishment of the abscess infection model. A subcutaneous groin abscess was created by injecting 1 ml of the bacterial suspension in semisolid nutrient agar subcutaneously into the loose skin of the right groin area. The final inoculum for the S. aureus strains utilized ranged from 6.4 to 7.2 log10 CFU/rat.
as §3
as §4, with “For enumeration of viable bacterial numbers, 10-fold serial dilutions were prepared in PBS and triplicate samples of 20 μl each were inoculated onto Trypticase soy agar supplemented with 5% sheep's blood (S. pneumoniae and S. aureus) or chocolate agar (H. influenzae) by a modified Miles-Misra technique ([27], [28]), using a Hamilton Microlab AT 2 Plus system.” left out, “CFU/tissue. […]” for “CFU/tissue.”

Setting [12] is: susceptible S. pneumoniae strain, recreated human profiles, bacterial numbers reduced to below or close to the limit of detection.

Take `Cc1onc(-c2ccccc2)c1C(=O)N[C@@H]1C(=O)N2[C@@H]1SC(C)(C)[C@@H]2C(=O)O` [Oxacillin]: in [1] (S. aureus PVL-2), the “Susceptibility category (superscript to MIC)” value (shortened to “Susceptibility category”) was “R” and the MIC came out at 32 µg/mL (≈ 79.7 µM). Besides, in [1] (S. aureus X32601), the “Susceptibility category” value is “R” and the MIC was greater than 64 µg/mL.
In the case of `CC(=O)NC[C@H]1CN(c2ccc(N3CCOCC3)c(F)c2)C(=O)O1` [LZD, linezolid], the “Susceptibility category” value in data set [1] (S. aureus A-24), in data set [1] (S. aureus PVL-2) and in [1] (S. aureus X32601) was “S” each time. The MIC in data set [1] (S. aureus A-24) was found to be 4 µg/mL (≈ 11.9 µM); in data set [1] (S. aureus PVL-2) it was 2 µg/mL (≈ 5.93 µM); in data set [1] (S. aureus X32601) it was 1 µg/mL (≈ 2.96 µM). Besides, the “AUC0–t Human” value in data set [2] (625 mg oral steady state, 12 h interval) is 147 µg·h/mL. Besides, the results for the “AUC from 0 to 12 h postdosing” value in data set [2] (LZD 625 mg oral) and in [2] (LZD 600-mg approved oral dose) were 147 µg·h/mL and 138 µg·h/mL, respectively.
`Cc1nc(NNC(=O)[C@H](CC2CCCC2)CN(O)C=O)c(F)c(N2CCN3CCOC[C@@H]3C2)n1` [GSK1322322]: the MIC is 0.5 µg/mL (≈ 1.04 µM) in [3] (S. pneumoniae ERY2); 2 µg/mL (≈ 4.17 µM) in data set [3] (S. pneumoniae L11259); 0.5 µg/mL (≈ 1.04 µM) in data set [3] (S. pneumoniae TPS3); 4 µg/mL (≈ 8.34 µM) in [4] (H. influenzae 511343); 4 µg/mL (≈ 8.34 µM) in data set [4] (H. influenzae 1302002H); 2 µg/mL (≈ 4.17 µM) in data set [4] (H. influenzae H128). Besides, the values for the MIC in data set [1] (S. aureus A-24), in data set [1] (S. aureus PVL-2) and in data set [1] (S. aureus X32601) were 4 µg/mL (≈ 8.34 µM), 4 µg/mL (≈ 8.34 µM) and 1 µg/mL (≈ 2.09 µM), respectively. For the same compound, the Kp in [5] amounted to 3.3. Besides, the “Blood and plasma concentrations compared” value in data set [6] and in data set [7] was “similar” in each case. In data set [8], the “Ratio of the total drug epithelial lining fluid AUC to the free drug plasma AUC” value is listed as 3.5.
As to `C[C@H]1COc2c(N3CCN(C)CC3)c(F)cc3c(=O)c(C(=O)O)cn1c23` [LVX, levofloxacin], the “Susceptibility category” value in [3] (S. pneumoniae ERY2) is listed as “S”; in data set [3] (S. pneumoniae L11259), “S”; in [3] (S. pneumoniae TPS3) it was “R”; in data set [4] (H. influenzae 511343), “NS”; in data set [4] (H. influenzae 1302002H) it was “S”; in data set [4] (H. influenzae H128), “S”. The “Susceptibility category” value in data set [1] (S. aureus PVL-2) is on record as “S”; in [1] (S. aureus X32601), “R”. Besides, the MIC in data set [3] (S. pneumoniae ERY2) stood at 1 µg/mL (≈ 2.77 µM); in data set [3] (S. pneumoniae L11259), 1 µg/mL (≈ 2.77 µM); in data set [3] (S. pneumoniae TPS3), 32 µg/mL (≈ 88.6 µM); in data set [4] (H. influenzae 511343), 4 µg/mL (≈ 11.1 µM); in data set [4] (H. influenzae 1302002H), 0.06 µg/mL (≈ 0.166 µM); in data set [4] (H. influenzae H128), 0.016 µg/mL (≈ 0.0443 µM). For the same compound, the MIC in [1] (S. aureus PVL-2) was determined as 0.25 µg/mL (≈ 0.692 µM); in data set [1] (S. aureus X32601), 32 µg/mL (≈ 88.6 µM). In addition, in [9] (96 h), the “Reduction in bacterial burden compared with controls at baseline” value is “did not demonstrate any reduction in bacterial burden”. The “Effect on bacterial burden” value in data set [9] (setting [12]) is given as “highly effective”. Further, the “Log10 reductions versus the levels at the baseline” value in [10] (recreated 500-mg LVX profile once daily, two susceptible H. influenzae isolates) was 4.2 log10 CFU/lungs and 4.5 log10 CFU/lungs. Further, the Efficacy entry in data set [10] (recreated 500-mg LVX profile, nonsusceptible H. influenzae strain) is given as “ineffective”. Besides, in [2] (500 mg single oral dose, 24 h interval), the “AUC0–t Human” value is 40 µg·h/mL. Moreover, the “Cmax Human” value in [2] (500 mg single oral dose) is 4300 ng/mL.
For `CC[C@H]1OC(=O)[C@H](C)[C@@H](O[C@H]2C[C@@](C)(OC)[C@@H](O)[C@H](C)O2)[C@H](C)[C@@H](O[C@@H]2O[C@H](C)C[C@H](N(C)C)[C@H]2O)[C@](C)(O)C[C@@H](C)CN(C)[C@H](C)[C@@H](O)[C@]1(C)O` [AZM, azithromycin], the “Susceptibility category” value in data set [3] (S. pneumoniae ERY2) is recorded as “R”; in [3] (S. pneumoniae L11259), “S”; in data set [3] (S. pneumoniae TPS3), “R”; in data set [4] (H. influenzae 511343) it was “S”; in data set [4] (H. influenzae 1302002H), “S”; in [4] (H. influenzae H128), “S”. The “Susceptibility category” value in data set [1] (S. aureus A-24), in [1] (S. aureus PVL-2) and in data set [1] (S. aureus X32601) was “R” throughout. Besides, the MIC in data set [3] (S. pneumoniae ERY2) came out at 16 µg/mL (≈ 21.4 µM); in [3] (S. pneumoniae L11259), 0.03 µg/mL (≈ 0.0401 µM); in data set [3] (S. pneumoniae TPS3) it was 4 µg/mL (≈ 5.34 µM); in [4] (H. influenzae 511343), 4 µg/mL (≈ 5.34 µM); in data set [4] (H. influenzae 1302002H) it was 2 µg/mL (≈ 2.67 µM); in data set [4] (H. influenzae H128) it was 0.5 µg/mL (≈ 0.668 µM). The MIC in data set [1] (S. aureus A-24), in data set [1] (S. aureus PVL-2) and in data set [1] (S. aureus X32601) was greater than 64 µg/mL throughout. For the same compound, the “Reduction in bacterial burden compared with controls at baseline” value in data set [9] (96 h) is given as “did not demonstrate any reduction in bacterial burden”. The “Effect on bacterial burden” value is on record as “no effect” in data set [9] (second AZM-resistant S. pneumoniae isolate, recreated AZM 1,000/500 mg profile, 96 h) and “highly effective” in [9] (setting [12]). Moreover, the “Log10 reductions versus the levels at the baseline” value in data set [10] (recreated AZM 1,000-mg loading then 500-mg profile once daily, two of three H. influenzae isolates) was 1.2 log10 CFU/lungs and 1.4 log10 CFU/lungs. Moreover, the Efficacy result in [10] (recreated AZM 1,000/500-mg profile, H. influenzae isolate with AZM MIC of 4 mg/liter) is “ineffective”; in data set [11], “ineffective”. In addition, the “AUC0–t Human” value in data set [2] (1,000/500 mg oral steady-state profile, 24 h interval) was 4.9 µg·h/mL. Besides, the “Cmax Human” value in data set [2] (1,000/500 mg oral steady-state profile) was 500 ng/mL.
